Measurements taken from patent US7417045B2, “Heterocyclic substituted pyridine or phenyl compounds with CXCR3 antagonist activity” (Schering Corporation, priority 2005, dated 2008).

Target: T1, human CXCR3 (N-delta 4) (Homo sapiens, UniProt P49682)
T1 construct: CD8 leader (N); Flag tag; expressed in transfected cells; membranes
T1 sequence (P49682 5-368 limits assumed): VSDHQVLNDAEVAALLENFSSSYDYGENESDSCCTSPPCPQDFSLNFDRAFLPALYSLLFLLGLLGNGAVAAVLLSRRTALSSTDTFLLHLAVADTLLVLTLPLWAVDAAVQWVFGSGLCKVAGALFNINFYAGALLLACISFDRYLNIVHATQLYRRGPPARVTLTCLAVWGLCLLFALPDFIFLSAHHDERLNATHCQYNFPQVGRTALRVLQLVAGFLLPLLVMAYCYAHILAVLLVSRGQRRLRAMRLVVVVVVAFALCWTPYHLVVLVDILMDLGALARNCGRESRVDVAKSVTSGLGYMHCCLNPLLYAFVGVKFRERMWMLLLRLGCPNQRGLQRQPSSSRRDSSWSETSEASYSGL
Test: Human CXCR3 (N-delta 4) Scintillation Proximity Assay (SPA), [125I] IP-10 binding
Settings: IC50 rating; [125I] IP-10 displacement, Ba/F3-hCXCR3 (N-delta 4) membranes
From the text: The inventive compounds can readily be evaluated to determine activity at The CXCR3 receptors by known methods, such as, for example, Development of Human CXCR3 (N-delta 4) Binding Assay.
Cloning and Expression of Human CXCR3 (N-Delta 4):
The DNA encoding human CXCR3 was cloned by PCR using human genomic DNA (Promega, Madison, Wis.) as a template. The PCR primers were designed based on the published sequence of human orphan receptor GPR9 (1) with incorporated restriction sites, a Kozak consensus sequence, CD8 leader and Flag tag. The PCR product was subcloned into the mammalian expression vector pME18Sneo, a derivative of the SR-alpha expression vector (designated as pME18Sneo-hCXCR3 (N-delta 4).
IL-3-dependent mouse pro-B cells Ba/F3 were transfected by electroporation in 0.4 ml Dulbecco's PBS containing 4×10^6 cells with 20 μg of pME18Sneo-hCXCR3 (N-delta 4) plasmid DNA. Cells were pulsed at 400 Volts, 100 OHMs, 960 μFd. The transfected cells were under selection with 1 mg/ml G418 (Life Technologies, Gaithersburg, Md.). G418-resistant Ba/F3 clones were screened for CXCR3 expression by specific binding of [^125I] IP-10 (NEN Life Science Products, Boston, Mass.).
Preparation of Ba/F3-hCXCR3 (N-Delta 4) Membranes
Ba/F3 cells expressing human CXCR3 (N-delta 4) were pelleted and resuspended in the lysis buffer containing 10 mM HEPES, pH 7.5 and Complete® protease inhibitors (1 tablet per 100 ml) (Boehringer Mannheim, Indianapolis, Ind.) at a cell density of 20×10^6 cells per ml. After 5 minutes incubation on ice, cells were transferred to 4639 cell disruption bomb (Parr Instrument, Moline, Ill.) and applied with 1,500 psi of nitrogen for 30 minutes on ice. Large cellular debris was removed by centrifugation at 1,000× g. Cell membrane in the supernatant was sedimented at 100,000× g. The membrane was resuspended in the lysis buffer supplemented with 10% sucrose and stored at −80° C. Total protein concentration of the membrane was determined by BCA method from Pierce (Rockford, Ill.).
Human CXCR3 (N-Delta 4) Scintillation Proximity Assay (SPA)
For each assay point, 2 μg of membrane was preincubated for 1 hr with 300 μg wheat germ agglutinin (WGA) coated SPA beads (Amersham, Arlington Heights, Ill.) in the binding buffer (50 mM HEPES, 1 mM CaCl2, 5 mM MgCl2, 125 mM NaCl, 0.002% NaN3, 1.0% BSA) at room temperature. The beads were spun down, washed once, resuspended in the binding buffer and transferred to a 96-well Isoplate (Wallac, Gaithersburg, Md.). 25 pM of [^125I] IP-10 with tested compounds in a series of titration were added to start the reaction. After 3 hr reaction at room temperature, the amount of [^125I] IP-10 bound to the SPA beads was determined with a Wallac 1450 Microbeta counter.

| Structure (SMILES) | IC50 [nM] |
| --- | --- |
| CC[C@H]1CN(c2ncc(-c3cncn3C)cc2Cl)CCN1C1CCN(Cc2ccc(Cl)cc2)CC1 [Compound 115] | 25 to 100 |
| CC[C@H]1CN(c2ncc(-c3nccn3C)cc2Cl)CCN1C1CCN(Cc2ccc(Cl)cc2F)CC1 [Compound 122] | 25 to 100 |
| CC[C@H]1CN(c2ncc(-c3ncco3)cc2Cl)CCN1C1CCN(Cc2ccc(Cl)cc2F)CC1 [Compound 140] | > 100 |
| CC[C@H]1CN(c2ncc(-c3ncc[nH]3)cc2Cl)CCN1C1CCN(C(=O)c2ccc(-n3ccnc3)cc2)CC1 [Compound 156] | > 100 |
| CC[C@H]1CN(c2ncc(-c3ncc[nH]3)cc2Cl)CCN1C1CCN([C@H](C(=O)N(C)C)c2ccc(Cl)cc2)CC1 [Compound 150] | > 100 |
| CC[C@H]1CN(c2ncc(-c3ncc[nH]3)cc2Cl)CCN1C1CCN(C(=O)c2ccc(-c3csnn3)cc2)CC1 [Compound 109] | 25 to 100 |
| CC[C@H]1CN(c2ncc(-c3ncc[nH]3)cc2Cl)CCN1C1CCN(Cc2ccc3[nH]ccc3c2)CC1 [Compound 138] | > 100 |
| CC[C@H]1CN(c2ncc(-c3nc(C(O)C(F)(F)F)cn3C(O)C(F)(F)F)cc2Cl)CCN1C1CCN(C(=O)c2ccc(Cl)cc2)CC1 (some centres unmarked) [Compound 163] | > 100 |
| CC[C@H]1CN(c2ncc(-c3ncc[nH]3)cc2Cl)CCN1[C@H]1CCN(Cc2ccc(Cl)cc2C(=O)NC)C[C@@H]1O [Compound 172] | > 100 |
| CC[C@H]1CN(c2ncc(C3=NCCCN3)cc2Cl)CCN1C1CCN(C(=O)c2ccc(Cl)cc2)CC1 [Compound 118] | 25 to 100 |
| CC[C@H]1CN(c2ncc(-c3nnc(C)o3)cc2Cl)CCN1C1CCN(C(=O)c2ccc(Br)cc2)CC1 [Compound 120] | 25 to 100 |
| CC[C@H]1CN(c2ncc(-c3ncc[nH]3)cc2Cl)CCN1C1CCN(C(=O)c2ccc(-n3cccn3)cc2)CC1 [Compound 102] | 25 to 100 |
| CC[C@H]1CN(c2ncc(C3=NCCN3)cc2Cl)CCN1C1CCN(C(=O)c2ccc(Cl)nc2N)CC1 [Compound 42] | < 25 |
| CC[C@H]1CN(c2ncc(-c3ncc[nH]3)cc2Cl)CCN1C1CCN(C(=O)c2ccc(-c3ccccc3)cc2)CC1 [Compound 132] | > 100 |
| CCNc1nnc(-c2cnc(N3CCN(C4CCN(C(=O)c5ccc(Cl)nc5N)CC4)[C@@H](CC)C3)c(Cl)c2)o1 [Compound 73] | < 25 |
| CC[C@H]1CN(c2ncc(-c3ncc[nH]3)cc2Cl)CCN1C1CCN(C(CO)c2ccc(Cl)cc2)CC1 (some centres unmarked) [Compound 18] | < 25 |
| CC[C@H]1CN(c2ncc(-c3ncc[nH]3)cc2Cl)CCN1C1(C)CCN(C(C(=O)OC)c2ccc(Cl)cc2)CC1 (some centres unmarked) [Compound 128] | 25 to 100 |

| Structure (SMILES) | IC50 [nM] |
| --- | --- |
| C[C@H]1CN(c2ncc(C3=NCCN3)cc2Cl)CCN1C1CCN(Cc2ccc(Cl)cc2)CC1 [Compound 65] | < 25 |
| CC[C@H]1CN(c2ncc(-c3ncc[nH]3)cc2Cl)CCN1C1(C)CCN(C(CO)c2ccc(Cl)cc2)CC1 (some centres unmarked) [Compound 38] | < 25 |
| CC[C@H]1CN(c2ncc(C3=NCCN3C(=O)c3ccc(C#N)cc3)cc2Cl)CCN1C1CCN(C(=O)c2ccc(C#N)cc2)CC1 [Compound 161] | > 100 |
| CC[C@H]1CN(c2ncc(-c3ncc[nH]3)cc2Cl)CCN1C1CCN(C(=O)c2ccc(C(=O)OC)cc2)CC1 [Compound 71] | < 25 |
| CC[C@H]1CN(c2ncc(-c3ncc[nH]3)cc2Cl)CCN1C1CCN(Cc2ccc(C#CCN(C)C)cc2)CC1 [Compound 100] | < 25 |
| CC[C@H]1CN(c2ncc(C3=NCCN3)cc2Cl)CCN1C1CCN(C(=O)c2ccc(C#CC(C)(C)O)cc2)CC1 [Compound 104] | 25 to 100 |
| CC[C@H]1CN(c2ncc(-c3ncc[nH]3)cc2Cl)CCN1C1CCN(C(=O)c2ccc(-n3cncn3)cc2)CC1 [Compound 135] | > 100 |
| CC[C@H]1CN(c2ncc(-c3ncc[nH]3)cc2Cl)CCN1C1CCN(C(=O)c2ccc(-n3cccc3)cc2)CC1 [Compound 67] | < 25 |
| CC[C@H]1CN(c2ncc(-c3ncc[nH]3)cc2Cl)CCN1C1CCN([C@H](C(=O)OC)c2ccc(Br)cc2)CC1 [Compound 127] | 25 to 100 |
| CC[C@H]1CN(c2ncc(C3=NCCN3)cc2Cl)CCN1C1CCN(C(=O)c2ccc(Cl)cc2I)CC1 [Compound 85] | < 25 |
| CC[C@H]1CN(c2ncc(C3=NCCN3)cc2Cl)CCN1C1CCN(Cc2ccc(Cl)cc2F)CC1 [Compound 26] | < 25 |
| CC[C@H]1CN(c2ncc(C3=NCCN3)cc2Cl)CCN1C1CCN(C(=O)c2ccc(Cl)cc2C(N)=NO)CC1 [Compound 93] | < 25 |
| CC[C@H]1CN(c2ncc(-c3ncc[nH]3)cc2Cl)CCN1C1CCN(Cc2ccc(C#CC(C)(C)NS(N)(=O)=O)cc2)CC1 [Compound 114] | 25 to 100 |
| CC[C@H]1CN(c2ncc(-c3nnc(COC(C)=O)o3)cc2Cl)CCN1C1CCN(Cc2ccc(Cl)cc2F)CC1 [Compound 84] | < 25 |
| CC[C@H]1CN(c2ncc(-c3ncc[nH]3)cc2Cl)CCN1C1CCN([C@@H](C)c2ccc(Cl)cc2)CC1 [Compound 30] | < 25 |
| CC[C@H]1CN(c2ncc(C3=NCCN3)cc2Cl)CCN1C1CCN([C@@H](CO)c2ccc(Cl)cc2)CC1 [Compound 7] | < 25 |
| CC[C@H]1CN(c2ncc(-c3ncc[nH]3)cc2Cl)CCN1C1CCN([C@@H](C(=O)NC2CC2)c2ccc(Cl)cc2)CC1 [Compound 36] | < 25 |

The remaining lines, values ahead:

| IC50 [nM] | Structure (SMILES) |
| --- | --- |
| < 25 | CC[C@H]1CN(c2ncc(-c3ncc[nH]3)cc2Cl)CCN1C1CCN(Cc2ccc(Cl)cc2-c2n[nH]c(=O)o2)CC1 [Compound 57] |
| < 25 | CC[C@H]1CN(c2ncc(-c3ncc[nH]3)cc2Cl)CCN1C1CCN(Cc2ccc(Br)cc2)CC1 [Compound 2] |
| < 25 | CC[C@H]1CN(c2ncc(-c3ncc[nH]3)cc2Cl)CCN1C1CCN(Cc2ccc(Cl)cc2F)CC1 [Compound 4] |
| < 25 | CC[C@H]1CN(c2ncc(-c3ncc[nH]3)cc2Cl)CCN1C1CCN(C(=O)c2ccc(C#N)nc2)CC1 [Compound 68] |
| < 25 | CC[C@H]1CN(c2ncc(-c3ncc[nH]3)cc2Cl)CCN1C1CCN([C@@H](C(=O)OC)c2ccc(Cl)cc2)CC1 [Compound 35] |
| < 25 | CC[C@H]1CN(c2ncc(-c3ncc[nH]3)cc2Cl)CCN1C1CCN(Cc2ccc(Cl)cc2-c2ncon2)CC1 [Compound 48] |
| < 25 | CC[C@H]1CN(c2ncc(-c3ncc[nH]3)cc2Cl)CCN1C1CCN([C@H](C(N)=O)c2ccc(Cl)cc2)CC1 [Compound 89] |
| < 25 | CC[C@H]1CN(c2ncc(-c3ncc[nH]3)cc2Cl)CCN1C1CCN(C(=O)c2ccc(-n3cccc3)nc2)CC1 [Compound 81] |
| < 25 | CC[C@H]1CN(c2ncc(-c3ncc[nH]3)cc2Cl)CCN1C1CCN(Cc2ccc(C#CCOC)cc2)CC1 [Compound 14] |
| < 25 | CC[C@H]1CN(c2ncc(-c3ncc[nH]3)cc2Cl)CCN1C1CCN(C(=O)c2ccc(C#CCOC)cc2)CC1 [Compound 92] |
| < 25 | CC[C@H]1CN(c2ncc(-c3ncc[nH]3)cc2Cl)CCN1C1CCN(C(=O)c2ccc(Cl)cc2C#N)CC1 [Compound 62] |
| < 25 | CC[C@H]1CN(c2ncc(-c3nnc(N)o3)cc2C)[C@H](C)CN1C1CCN(Cc2ccc(OC(F)(F)F)cc2)CC1 [Compound 174] |
| < 25 | CC[C@H]1CN(c2ncc(C3=NCCN3)cc2Cl)CCN1C1CCN(Cc2ccc(Cl)cc2C(C)(C)O)CC1 [Compound 44] |
| < 25 | CC[C@H]1CN(c2ncc(-c3n[nH]c(=O)[nH]3)cc2Cl)CCN1C1CCN(Cc2ccc(Cl)cc2F)CC1 [Compound 88] |
| < 25 | CC[C@H]1CN(c2ncc(C3=NCCN3)cc2Cl)CCN1C1CCN(Cc2ccc(Cl)cc2C(=O)OC)CC1 [Compound 61] |
| < 25 | CC[C@H]1CN(c2ncc(-c3ncc[nH]3)cc2Cl)CCN1C1CCN(C(C)c2ccc(Cl)cc2)CC1 (some centres unmarked) [Compound 8] |
